PubChem BioAssay AID1259411 (Chemical Carcinogenesis Research Information System (CCRIS), 2018)
Activity calls are given as the source filed them. No rule for the calls is given here.

Tested on: rodent carcinogenicity bioassays, tumor incidence
Assay: CCRIS carcinogenicity studies
Settings: Dose: 0, Dose: 0
Summary of the method: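 Archive of carcinogenicity, mutagenicity, tumor promotion and tumor inhibition results drawn from journals, NCI reports and other sources, expert-reviewed; covers 1985-2011 and is no longer updated.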

**Q.** CC(C)CCCCCCOC(=O)c1ccccc1C(=O)OCCCCCCC(C)C was tested. Which carcinogen call (Species: RAT, Strain/Sex: F344/FEMALE, Route: ORAL, 0.03, 0.3, 0.6% IN DIET FOR DURATION OF STUDY (STUDY DURATION: 24 MO), 0.03, 0.3, 0.6% IN DIET FOR DURATION OF STUDY (STUDY DURATION: 24 MO)) did it give?
**A.** inactive; negative

**Q.** What about the carcinogen call (Species: RAT, Strain/Sex: F344/MALE, Route: ORAL, 0.03, 0.3, 0.6% IN DIET FOR DURATION OF STUDY (STUDY DURATION: 24 MO), 0.03, 0.3, 0.6% IN DIET FOR DURATION OF STUDY (STUDY DURATION: 24 MO)) of the same molecule?
**A.** inactive; negative

**Q.** Which results are given for O=c1[nH]c2ccccc2c2ccccc12?
**A.** carcinogen call (Species: MOUSE, Strain/Sex: CD-1/FEMALE, Route: INTRAPERITONEAL, 5, 10 AND 20 µL OF A 0.05 MOLAR SOLUTION ON DAYS 1, 8 AND 15 OF LIFE RESPECTIVELY (TOTAL DOSE: 1.75 UMOL) (STUDY DURA, 5, 10 AND 20 µL OF A 0.05 MOLAR SOLUTION ON DAYS 1, 8 AND 15 OF LIFE RESPECTIVELY (TOTAL DOSE: 1.75 UMOL) (STUDY DURA): inactive; negative; carcinogen call (Species: MOUSE, Strain/Sex: CD-1/MALE, Route: INTRAPERITONEAL, 5, 10 AND 20 µL OF A 0.05 MOLAR SOLUTION ON DAYS 1, 8 AND 15 OF LIFE RESPECTIVELY (TOTAL DOSE: 1.75 UMOL) (STUDY DURA, 5, 10 AND 20 µL OF A 0.05 MOLAR SOLUTION ON DAYS 1, 8 AND 15 OF LIFE RESPECTIVELY (TOTAL DOSE: 1.75 UMOL) (STUDY DURA): inactive; negative

**Q.** Which carcinogen call (Species: MOUSE, Strain/Sex: SWISS-WEBSTER/FEMALE, Route: DERMAL, 1% IN 0.1 ML 0.1% SODIUM LAURYL SULFATE 1/WK FOR 18 MO (STUDY DURATION: 18 MO)) does the source give for O=C(O)c1cc2ccccc2c(N=Nc2ccc3ccccc3c2S(=O)(=O)O)c1O here?
**A.** inactive; negative

**Q.** What about the carcinogen call (Species: MOUSE, Strain/Sex: SWISS-WEBSTER/MALE, Route: DERMAL, 1% IN 0.1 ML 0.1% SODIUM LAURYL SULFATE 1/WK FOR 18 MO (STUDY DURATION: 18 MO)) of the same molecule?
**A.** inactive; negative

**Q.** How did the carcinogen call (Species: HAMSTER, Strain/Sex: SYRIAN/MALE, Route: SUBCUTANEOUS IMPLANT, 20 MG IN PELLETS IMPLANTED EVERY 2.5 MO FOR 9 MO (STUDY DURATION: 9 MO), Tumor Site: Type of Lesion: KIDNEY: TUMOR) turn out when CCC1C(c2ccc(O)cc2)=C(C)c2cc(O)ccc21 (configuration not stated) was run?
**A.** active; positive
